Patent US11925607B2, “Ketamine composition for use in a method of treatment of depression by pulmonary administration” (Celon Pharma S.A., priority 2018, dated 2024)

What was measured:
[1] = 0.20 mg/kg 40 minutes intravenous infusion, predicted from literature data; cited from earlier work
healthy volunteers = experiment: Adverse effects monitoring in clinical study, assessed by a psychiatrist; assay type: in vivo, human; details: pulmonary administration
Method: Both in Part A and Part B of the study the adverse effects were monitored and assessed by a psychiatrist. The summary of the adverse effects is presented in FIG. 10 (Part A) and FIG. 11 (Part B). […] Psychomimetic effects were transient, lasting up to 30 minutes following administration. […] In Part C of the study adverse effects were monitored and assessed by a psychiatrist after each sequence of administration, i.e. on Day 1, Day 4, Day 8 and Day 11. The summary of adverse effects for Part C is presented on FIGS. 12A to 12D for Day 1, Day 4, Day 8 and Day 11, respectively. […] Psychomimetic effects were transient, lasting up to 30 minutes following administration.

[2] = Pharmacokinetics of inhaled esketamine dry powder in healthy volunteers, clinical study; assay type: in vivo, human; details: pulmonary administration, overall conclusion
Method: Esketamine hydrochloride dry powder formulation of Example 2 was administered to healthy volunteers pulmonary, i.e. directly to the lungs using dry powder inhaler (DPI) (by self-administration), under supervision of medical personnel.
One puff of dry powder formulation contained 4.6 mg of esketamine hydrochloride, corresponding to 4 mg of esketamine free base and excipients 18.22 mg of lactose monohydrate and 0.18 mg of magnesium stearate.
A single dose was an inhalation events consisting of 1 to 6 puffs, i.e. 4 to 24 mg of esketamine free base nominal dose.
In part A of the study, designed as a one-centre single ascending dose, the medicine was delivered in a single dose once in one day (up to 6 consecutive puffs) to 18 healthy volunteer subjects. Subjects were divided into 6 cohorts, cohorts receiving 1, 2, 3, 4, 5 or 6 puffs in a single dose (inhalation event), respectively. Collection of blood samples for determination of esketamine and esnorketamine metabolite concentration and calculation of pharmacokinetic parameters was performed for 24 hours following the start of the test in the administration day. The aim of the study was to determine the amount of puffs in an inhalation event needed to obtain plasma concentration similar to that sufficient to achieve antidepressant effect as for 0.20 mg/kg 40 minutes intravenous infusion. […]

[3] = tested on: patients with treatment-resistant depression; details: cited from earlier work
[4] = cited from earlier work
[5] = cited from earlier work; remark: listed apart in the source
NMDA receptor = details: cited from earlier work
[6] = nebulized esketamine hydrochloride saline solution; cited from earlier work
[7] = after intravenous infusion of racemic ketamine
[8] = after oral administration of ketamine

CN[C@]1(c2ccccc2Cl)CCCCC1=O [esketamine]
concentration at 40 min of infusion [1]: 60 to 100 ng/mL | safety of plasma concentration profile (healthy volunteers): safe for chronic administration | Plasma concentration profile [2]: quite smooth, consistent with a target profile | antidepressant effect ([3]; TRD patients, 40-minute i.v. infusion of 0.20 mg/kg or 0.40 mg/kg (Singh et al.)): rapid onset of robust antidepressant effects

NC1(c2ccccc2Cl)CCCCC1=O (centres unmarked) [norketamine]
maximum concentration as % of ketamine concentration [4, 7]: 10-20% | percentage of AUC norketamine to ketamine [4, 7]: 20-40% | AUC as % of ketamine [5, 8]: exceeding 1000% | level as % of ketamine level [5, 8]: 500-1000% | activity on NMDA receptor relative to ketamine (NMDA receptor): many times less active than ketamine

CNC1(c2ccccc2Cl)CCCCC1=O (racemic) [ketamine]
half-period of concentration fall ([4]; after intravenous infusion 0.5 mg/kg for 40 minutes): below 2 hours | systemic concentration of parent drug ([4]; intravenous infusion 0.5 mg/kg for 40 minutes, maintained about 40 minutes): about 200 ng/ml | bioavailability ([5]; orally administered): 16-20% | inhaled bioavailability [6]: reduced | fraction of patients with treatment-resistant depression responsive ([3]; human, in vivo): about ⅔
